From paper PMC8042910, “Adiponectin-mimetic novel nonapeptide rescues aberrant neuronal metabolic-associated memory deficits in Alzheimer’s disease” (Molecular Neurodegeneration, 2021) come the findings set out here.

This experiment concerns p-IRS-1 and p-PI3K/Akt/GSK3β (Ser 9) pathways. The experiment in a line: Insulin resistance and downstream insulin signaling in APPswe/ind-overexpressing SH-SY5Y cells, immunoblot. To be noted: APPswe/ind SH-SY5YIR, Comp. C 10 μM with Os-pep 10 μM. It counts as cell-based, human. The procedure: Human neuroblastoma SH-SY5Y cells were seeded (in 6-well culture plates for immunoblotting and in chamber slides for immunofluorescence) in DMEM (Dulbecco’s modified Eagle medium) containing 10% fetal bovine serum (FBS) and 1% antibiotics (penicillin-streptomycin) and incubated at 37 °C in humidified air containing 5% CO2. Once the cells reached 70–80% confluence, the cells were transfected using the pCAX vector containing the APPswe/ind gene using Lipofectamine 3000 (Life Technologies) according to the provider’s protocols. AdipoR1 siRNA (h) (SC-60123) and AMPK siRNA (h) (SC-45312) (Santa Cruz Biotechnology, Inc.) were used at a concentration of 10 μM per transfection and expressed for 72 h according to the manufacturer’s protocol (Santa Cruz Biotechnology, Inc.). A negative siRNA (Ambion, Thermo Fisher Scientific) was used as a control. Seventy-two hours after the transfections, the cells were exposed to Os-pep (10 μM) for 12 h and then subjected to immunoblotting and immunofluorescence analyses.
Human neuroblastoma SH-SY5Y cells were treated with 1 µM of insulin for 48 h to produce intrinsic insulin-resistant human neuroblastoma (SH-SY5YIR) cells. After 48 h, SH-SY5YIR cells were overexpressed with human APPswe/ind and subjected with AdipoR1 siRNA which further exposed to 10 nM insulin, Os-pep (10 µM) or compound C (10 µM) for 12 h, and then cell lysates were collected and proceeded accordingly for immunoblotting and ELISA.
(A western blot detects proteins with antibodies after separation by electrophoresis.)

Consider `c1cc(-c2cnn3cc(-c4ccc(OCCN5CCCCC5)cc4)cnc23)ccn1` [Comp. C, reference compound], for which the “effect on insulin-sensitizing effect of Os-pep” value is “inhibited the insulin-sensitizing effect of Os-pep”.
